{"source": "patent US8193364B2", "about": "“Insecticidal N-substituted (6-haloalkylpyridin-3-yl)-alkyl sulfoximines” (Dow AgroSciences, LLC., priority 2006, dated 2012)", "type_in_all_cases": "in vivo", "key": {"[1]": {"test_system": "Green Peach Aphid (Myzus persicae)", "test": "Green peach aphid root uptake assay on pepper", "details": "3 days after infestation", "method": "Systemic activity of compound 2 against green peach aphid was evaluated in a root uptake assay. Bell peppers (Capsicum annum var. California Wonder) was used as test plant seeded and grown in rock wool plugs. Plants were grown to expanding 1st true leaf stage. The rock wool plugs containing individual plants were placed in 1-ounce cups and surrounded with white clean sand. Five plants were used for each treatment. Stock solution of 1000 ppm was made by dissolving 2 mg of technical test compound in 2 mL acetone. The highest test concentration (10 ppm, 0.05 mg/5 ml) was prepared by diluting 0.32 mL stock solution with 1.6 mL acetone and 30.08 mL DI water, containing 6% acetone. Lower test concentrations were prepared by sequentially diluting 6.5 mL higher concentration (start from the 10 ppm test solution) with 26.0 ml acetone:DI water (6:94). A volume of 5 mL was applied to each cup (each plant). Use 6% acetone in water as solvent check. After insecticide application, the seedlings were infested with green peach aphids and held in a growth chamber (25° C., 50 R.H, 16 hr light: 8 hr drak). Number of live aphid on each plant was counted at 3 days after infestation. Calculations for % control were based on a corrected basis compared to the populations on the solvent check plants. Corrected % Control=100*(X−Y)/X • where X=No. of live aphids on solvent check plants • Y=No. of live aphids on treated plants The Corrected % Control values from lower test rates are given in Table 6."}, "[2]": {"test_system": "Brown Dog Tick (Rhipicephalus sanguineus)", "test": "Brown dog tick glass plate assay", "details": "48-hour observation", "method": "Compound 2 was evaluated in a dose response series to establish the range of activity of the test compound. Technical material was dissolved in acetone and diluted with the same solvent to obtain the test concentrations. Tick bioassays were conducted by applying 1.0 ml of the test substance to clean dry glass plates confined by 10 cm grease pencil circles drawn on the plates and spread evenly with an acid brush. The plates were allowed to dry for at least 1 hour before adult ticks were confined to the treated substrate using 10 cm Petri dish lids. Each treatment was replicated 5 times. Approximately 5 adult ticks were placed into each replicate. Mortality was assessed at 2, 8, 24 and 48 hours after introduction of the ticks into the test system. The mean percent mortality for each dosage group and time interval was determined and results from the 48-hour observation are presented in Table 10."}, "[3]": {"test_system": "Sweet Potato Whitefly (Bemisia tabaci)", "test": "Sweet potato whitefly foliar spray assay on cotton", "details": "12 days, live large nymphs", "source_text": "This test was designed to measure the capability of whitefly eggs and/or young nymphs to develop to large nymphs. Cotton seedlings at the growth stage of one or two expanding true leaf were trimmed so that only the first true leaf remained (cotyledon leaves were also removed). The plants were pre-infested with sweet potato whitefly eggs by keeping plants next to the colony-keeping plants for two days. The infested plants were carefully checked for presence of similar egg density before use in the insecticidal tests. Master solutions of test compounds at 1000 ppm were prepared in acetone:methanol (1:1). The 12.5 ppm spray solutions were then made by diluting 0.188 mL of the master solution with 14.812 ml of 0.025% Tween 20 in water. The lower concentrations were made by diluting the 12.5 ppm spray solution with a diluent consisting 98.75 parts of 0.025% Tween 20 in water and 1.25 parts of acetone:methanol (1:1). The diluent was used as solvent control. The test solutions were sprayed with a hand-held Devilbiss sprayer until runoff to both sides of the infested cotton leaves. Four plants (4 replications) were used for each treatment. Treated plants were held in a holding room for 12 days at approximately 23° C. and 40% RH before evaluation. To evaluate the efficacy of the compounds, the number of live large nymphs in an area of 1 square inch on the lower surface of the treated cotton leaves was counted under a microscope. Insecticidal activity was determined by Corrected % Control using Abbott's correction formula and presented in Table 5: Corrected % Control=100*(X−Y)/X • where X=No. of live large nymphs on solvent check plants • Y=No. of live large nymphs on treated plants"}, "[4]": {"test_system": "Green Peach Aphid (Myzus persicae)", "test": "Green peach aphid foliar spray assay on cabbage", "details": "72 h, read-out: % Control at ppm, foliar spray, green peach aphid on cabbage", "method": "Cabbage seedlings grown in 3-inch pots, with 2-3 small (3-5 cm) true leaves, were used as test substrate. The seedlings were infested with 20-50 green peach aphids (wingless adult and nymph) 2-3 days prior to chemical application. Four seedlings were used for each treatment. Compounds (2 mg) were dissolved in 2 ml of acetone:methanol (1:1) solvent, forming stock solutions of 1000 ppm. The stock solutions were then diluted with a diluent consisting 80 parts of 0.025% Tween 20 in […] and 20 parts of acetone:methanol (1:1). A hand-held Devilbiss sprayer was used for spraying the test solutions to both sides of cabbage leaves until runoff. Reference plants (solvent check) were sprayed with the diluent only. Treated plants were held in a holding room for three days at approximately 23° C. and 40% RH prior to grading. Evaluation was conducted by counting the number of live aphids per plant under a microscope. Insecticidal activity was measured by using Abbott's correction formula: Corrected % Control=100*(X−Y)/X • where X=No. of live aphids on solvent check plants • Y=No. of live aphids on treated plants The Corrected % Control values from assays are given in Table 2."}, "[5]": {"test_system": "Cotton Aphid (Aphis gossypii)", "test": "Cotton aphid seed coating assay on squash", "details": "10% SC formulation, infested 13 days after planting, counted 3 days later", "method": "Compound 2 was tested in an assay designed to evaluate its systemic activity for control of cotton aphid through seed-coating prior to planting. The crop used in this assay was a hybrid squash (var. Pic-N-Pic). Test compound was formulated in a 10% SC formulation. For the 1 mg/seed treatment, the original 10% formulation was used. For the 0.1 mg/seed treatment, the 10% formulation were diluted 10× with DI water before application. Ten squash seeds were used for each treatment. Seeds were placed on waxed paper and a pipette was used to apply the original or diluted formulations to each seed. One half (5 ul) of the sample was spread onto one side of a seed. Once dried (approximately 1 hr), the seed was flipped over and the 2nd half of sample was spread over the other side. The air-dried, treated seeds were individually planted into 3 inch pots containing metro mix. The pots were placed on a California cart and moved into the greenhouse for sub watering only. Thirteen days later, when the seedlings were approximately 9 inch tall with three expanding true leaves, the 1st leaf was infested with approximately 40 wingless aphids. The infested plants were kept in an environmental holding room (23 C, 40% RH, 16 hr light: 8 hr dark) for three days before the number of live aphids was counted under a microscope. […]"}}, "data": [{"smiles": "CC(c1ccc(C(F)(F)F)nc1)S(C)(=O)=NC#N", "note": "(centres unmarked) [Compound 2, [1-(6-trifluoromethylpyridin-3-yl)ethyl](methyl)-oxido-λ^4-sulfanylidenecyanamide]", "values": [{"measurement": "% Control, root uptake systemic, green peach aphid on pepper", "setting": "[1]; 0.08 ug/plant", "result": 61, "unit": "%"}, {"measurement": "% Control, root uptake systemic, green peach aphid on pepper", "setting": "[1]; 0.4 ug/plant", "result": 95, "unit": "%"}, {"measurement": "% Control, root uptake systemic, green peach aphid on pepper", "setting": "[1]; 2 ug/plant", "result": 100, "unit": "%"}, {"measurement": "% Control, root uptake systemic, green peach aphid on pepper", "setting": "[1]; 10 ug/plant", "result": 100, "unit": "%"}, {"measurement": "mortality at 50 ppm", "setting": "[2]; 50 ppm", "result": 28, "unit": "%"}, {"measurement": "mortality at 500 ppm", "setting": "[2]; 500 ppm", "result": 61, "unit": "%"}, {"measurement": "% Control at ppm, foliar spray, sweet potato whitefly on cotton", "setting": "[3]; 0.781 ppm", "result": 80, "unit": "%"}, {"measurement": "% Control at ppm, foliar spray, sweet potato whitefly on cotton", "setting": "[3]; 3.125 ppm", "result": 94, "unit": "%"}, {"measurement": "% Control at ppm, foliar spray, sweet potato whitefly on cotton", "setting": "[3]; 12.500 ppm", "result": 100, "unit": "%"}, {"measurement": "pest or weed control at 0.195 ppm", "setting": "[4]", "result": "80 to 89", "unit": "%"}, {"measurement": "pest or weed control at 0.781 ppm", "setting": "[4]", "result": "90 to 100", "unit": "%"}, {"measurement": "pest or weed control at 3.125 ppm", "setting": "[4]", "result": "90 to 100", "unit": "%"}, {"measurement": "% Control, root uptake systemic, cotton aphid on squash", "setting": "[5]; seed coating 0.1 mg/seed", "result": 99.7, "unit": "%"}, {"measurement": "% Control, root uptake systemic, cotton aphid on squash", "setting": "[5]; seed coating 1 mg/seed", "result": 100, "unit": "%"}]}]}
